Reference: PubChem BioAssay (NCI)
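1) Cells in 96-well plates. 2) Compound, 48 h, 5 concentrations. 3) Linear interpolation between surrounding doses. 4) Unreached endpoint = highest concentration. At the TGI there is no net growth.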 Where a SMILES comes first, the peptide text is derived from it. The star is where a group is joined. Boc = CC(C)(C)OC(=O)*

Experiments:
Assay in all cases: NCI tumour cell line growth inhibition, 48 h
COLO 205 colon = tested on: COLO 205 colon
SF-295 CNS = tested on: SF-295 CNS
MDA-N = tested on: MDA-N
U251 CNS = tested on: U251 CNS
SK-MEL-2 melanoma = tested on: SK-MEL-2 melanoma
UACC-62 melanoma = tested on: UACC-62 melanoma
MDA-MB-435 = tested on: MDA-MB-435
CCRF-CEM leukemia = tested on: CCRF-CEM leukemia
UO-31 renal = tested on: UO-31 renal
OVCAR-8 ovarian = tested on: OVCAR-8 ovarian
M14 melanoma = tested on: M14 melanoma
K-562 leukemia = tested on: K-562 leukemia
A549 NSCLC = tested on: A549 NSCLC

SMILES | TGI (COLO 205 colon) | TGI (SF-295 CNS) | TGI (MDA-N) | TGI (U251 CNS) | TGI (SK-MEL-2 melanoma) | TGI (UACC-62 melanoma) | TGI (MDA-MB-435) | TGI (CCRF-CEM leukemia) | TGI (UO-31 renal) | TGI (OVCAR-8 ovarian) | TGI (M14 melanoma) | TGI (K-562 leukemia) | TGI (A549 NSCLC)
CC1(C)OCC(COC(=O)C=[N+]=[N-])O1 (configuration not stated) | > 100 µM | > 100 µM | > 100 µM | > 100 µM | > 100 µM | > 100 µM | > 100 µM | > 100 µM | > 100 µM | – | – | – | –
CC(C)(C)c1ccc2c(c1)CNCCNCc1cc(C(C)(C)C)ccc1OCC1(CO2)COc2ccc(C(C)(C)C)cc2CNCCNCc2cc(C(C)(C)C)ccc2OC1 | 2.29 µM | 1.97 µM | 2.14 µM | 0.479 µM | 2.89 µM | 2.76 µM | 1 µM | 0.68 µM | 3.25 µM | 1.45 µM | 1.45 µM | – | –
O=C(Nc1ccc(Br)cc1)c1c(-c2ccccc2)c2ccc(O)cc2oc1=O | > 10 µM | > 10 µM | > 10 µM | > 10 µM | > 10 µM | – | > 10 µM | > 10 µM | > 10 µM | > 10 µM | > 10 µM | > 10 µM | –
CC(C)=CCOC(=O)C(C)=[N+]=[N-] | > 100 µM | > 100 µM | > 100 µM | > 100 µM | – | > 100 µM | > 100 µM | – | > 100 µM | > 100 µM | – | > 100 µM | –
COc1ccc(C2Oc3c(cc(O)c(OC)c3C)[C@@H]2C)cc1OC (some centres not stated) | > 100 µM | > 100 µM | – | > 100 µM | > 100 µM | > 100 µM | – | > 100 µM | > 100 µM | > 100 µM | > 100 µM | > 100 µM | > 100 µM
CC(CN1c2ccccc2Sc2ccccc21)N(C)C (configuration not stated) | 29.2 µM | 28.9 µM | – | 27.7 µM | 34.7 µM | 33.9 µM | 31.2 µM | 40.1 µM | 32.8 µM | 29.8 µM | 33.9 µM | 36.1 µM | 35.7 µM
COc1ccc(C(C#N)NNC(=O)c2ccccc2O)cc1OC (configuration not stated) | > 100 µM | > 100 µM | – | > 100 µM | 78.2 µM | 0.908 µM | – | > 100 µM | 2.2 µM | > 100 µM | 46.7 µM | > 100 µM | > 100 µM
O=C(O)c1cc2c(cc1CC(Cc1ccc3c(c1)CCC3)C(=O)O)CCC2 (configuration not stated) | > 100 µM | > 100 µM | > 100 µM | > 100 µM | > 100 µM | – | > 100 µM | > 100 µM | > 100 µM | > 100 µM | > 100 µM | – | > 100 µM
COC(=O)CNC(=O)C(Cc1ccccc1)NC(=O)C(CCSC)NC(=O)C(Cc1ccc(O)cc1)NC(=O)OC(C)(C)C (configuration not stated) (Boc-YMFG-OMe; configuration not given here) | > 100 µM | > 100 µM | > 100 µM | > 100 µM | 33.1 µM | > 100 µM | > 100 µM | – | > 100 µM | > 100 µM | > 100 µM | > 100 µM | > 100 µM
COC(=O)C(CCC#N)(CCC#N)C(=O)OC | > 100 µM | > 100 µM | – | > 100 µM | – | > 100 µM | – | > 100 µM | > 100 µM | > 100 µM | > 100 µM | > 100 µM | > 100 µM
